Data set [1] concerns Mycobacterium tuberculosis. The data set is described as follows: Antimycobacterial activity against Mycobacterium tuberculosis H37Rv ATCC 27294 assessed as inhibition of bacterial growth incubated for 7 days by MABA assay. The data set is classed as functional. As to conditions: H37Rv ATCC 27294, 168 h, time 7 day. (The colour change of resazurin is a common sign of viable cells or microbes.)

The nature of data set [2]: Oral bioavailability in BALB/c mouse at 12.5 mg/kg measured upto 24 hrs by HPLC analysis. The data set is classed as ADME, organism-based. As to conditions: in vivo; for bioavailability: BALB/c.
Data set [3] in a line: Cmax in BALB/c mouse at 2.5 mg/kg, iv measured upto 24 hrs by HPLC analysis. More on the design: route intravenous, dose 2.5 mg/kg, time <=24. As to conditions: in vivo. The data set is classed as ADME, organism-based.
Data set [4] in a line: Cytotoxicity against African green monkey Vero cells. It is filed as cell-based. As to conditions: chlorocebus sabaeus.
Data set [5] is described as follows: Tmax in BALB/c mouse at 12.5 mg/kg, po measured upto 24 hrs by HPLC analysis. The settings on record: in vivo. The data set is classed as ADME, organism-based.
Data set [6] can be described thus: Acute toxicity in BALB/c mouse assessed as mouse survival at 2 g/kg, po observed continuously for 4 hrs and each hr for next 24 hrs and at 8 hrs interval for following 7 days. The data set is classed as organism-based. The settings on record: in vivo, 2000 mg/kg, 168 h, time 7 day.
Data set [7] can be described thus: Cmax in BALB/c mouse at 12.5 mg/kg, po measured upto 24 hrs by HPLC analysis. The settings on record: in vivo. It is filed as ADME, organism-based. Set-up: route oral, dose 12.5 mg/kg, time <=24.
Data set [8] in a line: Half life in BALB/c mouse at 12.5 mg/kg, po measured upto 24 hrs by HPLC analysis. It is filed as ADME, organism-based. As to conditions: in vivo.
Data set [9] deals with Mycobacterium tuberculosis. Briefly: Antimycobacterial activity against Mycobacterium tuberculosis H37Rv infected in BALB/c mouse assessed as reduction in colony forming unit in lung at 25 mg/kg, po administered once daily for 5 days a week for 3 weeks (reference value: 5.35 +/- 0.17 log10CFU). It is filed as functional.
Data set [10] is described as follows: AUC (0 to infinity) in BALB/c mouse at 12.5 mg/kg, po measured upto 24 hrs by HPLC analysis. It is filed as ADME, organism-based. More on the design: route oral, dose 12.5 mg/kg, time <=24. The settings on record: in vivo.
Data set [11] in a line: AUC (0 to infinity) in BALB/c mouse at 2.5 mg/kg, iv measured upto 24 hrs by HPLC analysis. It is filed as ADME, organism-based. More on the design: route intravenous, dose 2.5 mg/kg, time <=24. The settings on record: in vivo.
The nature of data set [12]: Half life in BALB/c mouse at 2.5 mg/kg, iv measured upto 24 hrs by HPLC analysis. The data set is classed as ADME, organism-based. The settings on record: in vivo.

Converted amounts (≈) assume the structure as drawn. Bounds are passed on as bounds.

For `CC(c1ccc(Cl)cc1)N1CC2(CCN(c3nc(=O)c4cc(C(F)(F)F)cc([N+](=O)[O-])c4s3)CC2)C1` (centres undefined), the MIC (usually the smallest concentration in the dilution series that meets the test's criterion for growth inhibition) in data set [1] was under 0.016 mg/L.

On to `CC(c1ccc(Br)cc1)N1CC2(CCN(c3nc(=O)c4cc(C(F)(F)F)cc([N+](=O)[O-])c4s3)CC2)C1` (centres undefined), for which the MIC in [1] was under 0.016 mg/L.

On to `CC(c1cc(F)cc(F)c1)N1CC2(CCN(c3nc(=O)c4cc(C(F)(F)F)cc([N+](=O)[O-])c4s3)CC2)C1` (centres undefined), for which the bioavailability – broadly, the share of a dose that reaches the circulation, judged against a reference dose that is usually intravenous – in [2] came out at 15%. Further, the Cmax (commonly the maximum level reached in the sampled fluid or tissue) in [3] came out at 0.723 µg/mL; in [7], 0.286 µg/mL. For the same compound, the CC50 (commonly the concentration giving 50% cytotoxicity) in data set [4] is over 64 mg/L. Besides, in [5], the Tmax (commonly the time from dosing to the highest level) was 0.25 h. The Activity result is reported as “Non-Toxic” in data set [6] and over 5 log10CFU in data set [9]. The results for the half-life in data set [8] and in data set [12] were 3.02 h and 3.25 h, respectively. Further, in data set [1], the minimal inhibitory concentration (MIC) is under 0.016 mg/L. The AUC(0-inf) (commonly the area under the concentration-time curve extrapolated to infinity) came out at 0.609 µg·h/mL in data set [10] and 0.812 µg·h/mL in data set [11].

On to `O=c1nc(N2CCC3(CC2)CN(Cc2cc(F)cc(F)c2)C3)sc2c([N+](=O)[O-])cc(C(F)(F)F)cc12`, for which the MIC in data set [1] is under 0.016 mg/L.

`CC(c1cccc(F)c1)N1CC2(CCN(c3nc(=O)c4cc(C(F)(F)F)cc([N+](=O)[O-])c4s3)CC2)C1` (centres undefined): the MIC in data set [1] is under 0.016 mg/L.

On to `O=c1nc(N2CCC3(CC2)CN(Cc2ccc(C(F)(F)F)cc2)C3)sc2c([N+](=O)[O-])cc(C(F)(F)F)cc12`, for which the CC50 in data set [4] was over 64 mg/L. Besides, the Activity result in [6] is given as “Toxic”. For the same compound, in data set [1], the MIC was under 0.016 mg/L.

Consider `CC(c1ccc(F)c(F)c1)N1CC2(CCN(c3nc(=O)c4cc(C(F)(F)F)cc([N+](=O)[O-])c4s3)CC2)C1` (centres undefined), for which the MIC in [1] was under 0.016 mg/L.

As for `CC(c1ccc(F)cc1)N1CC2(CCN(c3nc(=O)c4cc(C(F)(F)F)cc([N+](=O)[O-])c4s3)CC2)C1` (centres undefined), the MIC in data set [1] is under 0.016 mg/L.

The compound `CC(c1ccc(Cl)c(F)c1)N1CC2(CCN(c3nc(=O)c4cc(C(F)(F)F)cc([N+](=O)[O-])c4s3)CC2)C1` (centres undefined) gave a bioavailability in data set [2] of 33%. Also, the Cmax in data set [3] was found to be 0.709 µg/mL; in data set [7], 0.313 µg/mL. Also, the CC50 in data set [4] is over 64 mg/L. Moreover, in data set [5], the time to peak (Tmax) came to 0.5 h. The Activity entry in [6] is “Non-Toxic”; in data set [9], over 5 log10CFU. Further, the results for the half-life in data set [8] and in data set [12] were 10.1 h and 7.5 h, respectively. Also, the MIC in data set [1] is under 0.016 mg/L. For the same compound, the AUC(0-inf) in data set [10] was 1.94 µg·h/mL; in data set [11], 1.17 µg·h/mL.

`CC(c1cc(F)c(F)c(F)c1)N1CC2(CCN(c3nc(=O)c4cc(C(F)(F)F)cc([N+](=O)[O-])c4s3)CC2)C1` (centres undefined): the bioavailability in data set [2] worked out at 18.3%. In addition, the results for the Cmax in data set [3] and in data set [7] were 0.463 µg/mL and 0.24 µg/mL, respectively. Moreover, the CC50 in [4] was over 64 mg/L. Also, in data set [5], the Tmax stood at 0.25 h. The Activity entry is reported as “Non-Toxic” in data set [6] and over 5 log10CFU in data set [9]. Also, the half-life (as a rule, how long it takes for the measured level to halve) in data set [8] is 2.08 h; in data set [12] it was 1.86 h. For the same compound, the MIC in data set [1] is under 0.016 mg/L. The AUC(0-inf) in [10] worked out at 0.455 µg·h/mL; in data set [11], 0.498 µg·h/mL.

On to `O=c1nc(N2CCC3(CC2)CN(Cc2ccc(F)cc2)C3)sc2c([N+](=O)[O-])cc(C(F)(F)F)cc12`, for which, in [1], the MIC was under 0.016 mg/L.

Turning to `O=c1nc(N2CCC3(CC2)CN(Cc2cccc(F)c2)C3)sc2c([N+](=O)[O-])cc(C(F)(F)F)cc12`, the MIC in data set [1] is under 0.016 mg/L.

In turn, `CC(c1ccc(OC(F)(F)F)cc1)N1CCC2(CC1)CN(c1nc(=O)c3cc(C(F)(F)F)cc([N+](=O)[O-])c3s1)C2` (centres undefined) came in with a CC50 in [4] of over 64 mg/L. The Activity entry in data set [6] is “Non-Toxic”; in data set [9], 4.05 log10CFU. In addition, the MIC in data set [1] is under 0.016 mg/L.

`O=c1nc(N2CCC3(CC2)CN(C(c2ccc(F)cc2)c2ccc(F)cc2)C3)sc2c([N+](=O)[O-])cc(C(F)(F)F)cc12`: the MIC in data set [1] turned out to be 0.037 mg/L (≈ 0.0614 µM).

`CC(c1ccc(F)c(Cl)c1)N1CC2(CCN(c3nc(=O)c4cc(C(F)(F)F)cc([N+](=O)[O-])c4s3)CC2)C1` (centres undefined): the MIC in [1] is under 0.016 mg/L.

The compound `CC(c1ccc(OC(F)(F)F)cc1)N1CC2(CCN(c3nc(=O)c4cc(C(F)(F)F)cc([N+](=O)[O-])c4s3)CC2)C1` (centres undefined) showed a bioavailability in [2] of 24.2%. Also, the Cmax in data set [3] was 1.64 µg/mL; in [7], 0.915 µg/mL. In addition, the CC50 in [4] is over 64 mg/L. Besides, the Tmax in [5] was 0.25 h. Besides, the results for the Activity result in [6] and in data set [9] were “Non-Toxic” and over 5 log10CFU, respectively. In addition, the half-life in [8] was 6 h; in data set [12] it was 8.51 h. Further, in data set [1], the MIC is under 0.016 mg/L. The area under the curve AUC(0-inf) in [10] was determined as 3.62 µg·h/mL; in [11] it was 2.99 µg·h/mL.

As for `O=c1nc(N2CCC3(CC2)CN(Cc2ccc(OC(F)(F)F)cc2)C3)sc2c([N+](=O)[O-])cc(C(F)(F)F)cc12`, the MIC in data set [1] is under 0.016 mg/L.

Consider `CC(c1ccc(F)cc1F)N1CC2(CCN(c3nc(=O)c4cc(C(F)(F)F)cc([N+](=O)[O-])c4s3)CC2)C1` (centres undefined), for which the MIC in data set [1] was under 0.016 mg/L.

The compound `CC(c1ccc(C(F)(F)F)cc1)N1CC2(CCN(c3nc(=O)c4cc(C(F)(F)F)cc([N+](=O)[O-])c4s3)CC2)C1` (centres undefined) yielded a bioavailability in [2] of 41.5%. For the same compound, the results for the Cmax in data set [3] and in data set [7] were 1.39 µg/mL and 1.24 µg/mL, respectively. The CC50 in data set [4] is over 64 mg/L. In addition, the Tmax in data set [5] was 0.25 h. In addition, the Activity entry in [6] is listed as “Non-Toxic”; in data set [9] it was over 5 log10CFU. The half-life is 6.69 h in data set [8] and 9.29 h in data set [12]. Moreover, the minimum inhibitory concentration (MIC) in data set [1] is under 0.016 mg/L. The area under the curve AUC(0-inf) came out at 5.5 µg·h/mL in data set [10] and 2.65 µg·h/mL in data set [11].

On to `O=c1nc(N2CCC3(CC2)CN(Cc2ccc(Br)cc2)C3)sc2c([N+](=O)[O-])cc(C(F)(F)F)cc12`, for which the minimum inhibitory concentration (MIC) in [1] was under 0.016 mg/L.

For `NNC(=O)c1ccncc1` [ISONIAZID], in data set [1], the MIC was found to be 0.038 mg/L (≈ 0.277 µM). In [9], the Activity was over 5 log10CFU.

`O=c1nc(N2CCN(CC3CCCCC3)CC2)sc2c([N+](=O)[O-])cc(C(F)(F)F)cc12` [MACOZINONE] gave a F in [2] (12.5 mg/kg, 24 h) of 11.8%. For the same compound, the Cmax in data set [3] was found to be 1.84 µg/mL; in [7], 0.734 µg/mL. This compound had a CC50 in data set [4] of over 64 mg/L. Also, the Tmax in [5] amounted to 0.25 h. Further, the half-life was 5.07 h in data set [8] and 5.14 h in [12]. For the same compound, the MIC in data set [1] is under 0.016 mg/L. The Activity in [9] was over 5 log10CFU. Besides, the AUC(0-inf) in data set [10] came out at 0.912 µg·h/mL; in data set [11] it was 1.54 µg·h/mL.

Consider `CO[C@H]1/C=C/O[C@@]2(C)Oc3c(C)c(O)c4c(O)c(c(/C=N/N5CCN(C)CC5)c(O)c4c3C2=O)NC(=O)/C(C)=C\C=C\[C@H](C)[C@H](O)[C@@H](C)[C@@H](O)[C@@H](C)[C@H](OC(C)=O)[C@@H]1C` [RIFAMPIN], for which the MIC in data set [1] is 0.037 mg/L (≈ 0.045 µM).

These data come from ChEMBL document CHEMBL4680263, “Identification of benzothiazinones containing 2-benzyl-2,7-diazaspiro[3.5]nonane moieties as new antitubercular agents” (Eur J Med Chem, 2020).
